In article PMC8406801, “Naringenin Inhibits Platelet Activation and Arterial Thrombosis Through Inhibition of Phosphoinositide 3-Kinase and Cyclic Nucleotide Signaling” (Frontiers in Pharmacology, 2021):
Several values for one entry are separate records, joined by “and”; a condition that tells them apart may be missing. Equal values may be shown once.

What was measured:
Format in all cases: cell-based, rat
[1] = test system: PRP (platelet-rich plasma); test: ADP (10 μmol/L)-induced aggregation of PRP in vitro; settings: for Aggregation (%): raw data
Experimental: Washed rat platelets were prepared as described previously ([Gao et al., 2011]) with a minor modification. Briefly, rat blood was drawn from the abdominal aorta into the siliconized vacutainers containing 1:9 (v/v) 3.8% sodium citrate, supplemented with 100 ng/ml prostaglandin E1 (PGE1) and centrifuged at 300 × g for 6 min at room temperature. Platelet-rich plasma (PRP) was obtained, and after the addition of 100 ng/ml PGE1, platelets were pelleted at 900 × g for 10 min. Platelets were washed once in Tyrode’s buffer (12 mM NaHCO3, 138 mM NaCl, 5.5 mM glucose, 2.9 mM KCl, 2 mM MgCl2, 0.42 mM NaH2PO4, 10 mM HEPES, pH 7.4) containing 100 ng/ml PGE1, and finally resuspended in Tyrode’s buffer containing 0.02 U/mL apyrase to a final concentration of 4×10^8 cells/mL. Washed platelets were preincubated with vehicle (0.4% dimethyl sulfoxide) or various concentrations of naringenin in the presence of 2 mM CaCl2 for 5 min at 37°C, and then further stimulated by ADP (10 μM), thrombin (0.2 U/mL) or collagen (2 μg/ml). The maximum platelet aggregation rate was detected within 5 min with continuous stirring.
Platelet aggregation was induced by ADP using washed platelets and PRP. Washed platelets were preincubated with vehicle (containing 0.4% DMSO) or different doses (100, 200, 400, and 800 μM) of naringenin or naringin for 5 min before activation with ADP (10 μM) for 5 min. […] For example, naringenin, at doses of 100 and 800 μM, decreased ADP-induced platelet aggregation to 54.5 ± 6.2% and 6.3 ± 1.7%, respectively (n = 6; p < 0.001, control group platelet aggregation was taken as 100%) (Figure 1F). […] Because dietary flavonoids have been reported to bind plasma proteins and cause the lowering of inhibitory potency in PRP ([Wright et al., 2013]), the ability of naringenin and naringin on platelet function in PRP was investigated to compare their effects with washed platelets.
FIGURE 1 Effects of naringenin and naringin on platelet aggregation. Chemical structure of naringin (A) and naringenin (B). The effects of naringin (C) or naringenin (D) on PRP were measured following stimulation with 10 μmol/L ADP. Rat washed platelet aggregation performed with or without different concentrations of naringin (E) or naringenin (F) was recorded after stimulation with 10 μmol/L ADP. Similarly, Washed platelet aggregation performed with vehicle or various concentrations of naringenin was recorded after stimulation with 0.2 U/mL thrombin (G) or 2 μg/ml collagen (H). WP represents washed platelets. Data are expressed as means ± SD (n = 6), the level of aggregation obtained at 5 min with vehicle-treated samples (0 μM) was taken as 100%. *p < 0.05, **p < 0.01, ***p < 0.001 compared with the vehicle control group.

PI3Kp110β = test: Immunoblotting of PI3Kp110β in ADP-stimulated washed platelets; settings: ADP 10 μmol/L, single replicates; for PI3Kp110β / GAPDH: raw data
Experimental: (§1) For in vitro platelet aggregation, aliquots of washed platelets were preincubated with vehicle or various concentrations of naringenin for 5 min and stimulated with ADP (10 μmol/L) under stirring at 37°C for 5 min. For ex vivo platelet aggregation, PRP was incubated at 37°C for 5 min and stimulated with ADP (5 μmol/L) under stirring at 37 °C. The platelet aggregation was terminated by adding ethylenediaminetetraacetic acid (EDTA; 10 mM). Total protein was prepared using RIPA lysis buffer and protein content was determined by bicinchoninic acid (BCA) protein assay kit. Equal amounts of platelet proteins (30 μg) were separated on 10% SDS polyacrylamide gel electrophoresis (SDS-PAGE) and then transferred to poly vinylidene difluoride (PVDF) membranes and subjected to western blot. Blots were blocked with TBS-Tween 20 containing 5% BSA and probed with primary antibodies diluted in blocking solution at 4°C overnight followed by incubation with the corresponding HRP secondary antibodies. The protein bands were visualized using enhanced chemiluminescence (ECL).
(§2) FIGURE 4 Naringenin inhibits PI3K-mediated signaling in ADP-induced platelets. Washed rat platelets were preincubated without or with naringenin at 37°C for 5 min, and then stimulated with ADP (10 μmol/L) under stirring for 5 min. Platelet proteins were then extracted and analyzed by immunoblotting using PI3Kp110β antibody (A) and phospho-specific antibodies such as Akt^Ser473 (B), Akt^Thr308 (C), ERK1/2^Thr202/Tyr204 (D) and GSK3β^Ser9 (E). Total level of GAPDH was measured on each sample as a loading control. The blots shown are representative of three separate experiments. The relative protein expression levels were quantified by ImageJ 1.47v software. The level of relative protein expression obtained with vehicle control (0 μM) was taken as 1. R represents the level of relative protein expression in resting platelets. Data are expressed as means ± SD (n = 3). *p < 0.05, **p < 0.01, ***p < 0.001 compared with the vehicle control group.

[2] = test system: Akt Ser473 phosphorylation; test: Immunoblotting of phospho-Akt (Ser473) in ADP-stimulated washed platelets; settings: single replicates; for p-Akt Ser473 / t-Akt: raw data
Experimental: as §1, §2
FIGURE 5 Effects of naringenin combined with PI3K pan inhibitor LY294002 on platelet aggregation and Akt phosphorylation. Washed rat platelets were preincubated with naringenin (200 μmol/L) alone, the PI3K pan inhibitor LY294002 (5 μmol/L) alone or both for 5 min prior to ADP (10 μmol/L) activation. After stimulation with ADP, platelet aggregation was quantified and expressed as a percentage (A). Data are expressed as means ± SD (n = 6). ***p < 0.001 compared with the ADP-treated group, ^### p < 0.001 compared with naringenin alone or LY294002 alone. Platelet proteins were then extracted and specific antibodies were used to measure the level of total and phosphorylated Akt (B). The blots shown are representative of three separate experiments. The relative protein expression levels were quantified by ImageJ 1.47v software. The level of phosphorylation obtained in the ADP-treated group was taken as 1. Data are expressed as means ± SD (n = 3). ***p < 0.001 compared with the ADP-treated group, ^### p < 0.001 compared with naringenin alone or LY294002 alone.

[3] = Figure 5B: ADP 10 μM, naringenin 200 μM alone

## O=C1C[C@@H](c2ccc(O)cc2)Oc2cc(O)cc(O)c21 [Naringenin]
[1]; ADP-induced, 100 μM
  decrease of aggregation in PRP: 18%
[1]; PRP, ADP 10 μmol/L, compound 100 μM, single replicates
  Aggregation (%): 44.9% and 44.8% and 49.7% and 47.9% and 48.3%
[1]; PRP, ADP 10 μmol/L, compound 100 μM, single replicates, 100 µM
  Aggregation % of control: 78.3 % of control and 86.8 % of control and 83.7 % of control and 79.5 % of control and 84.4 % of control
[1]; PRP, ADP 10 μmol/L, compound 200 μM, single replicates
  Aggregation (%): 42.5% and 44.3% and 48.9% and 47.2% and 39.7%
[1]; PRP, ADP 10 μmol/L, compound 200 μM, single replicates, 200 µM
  Aggregation % of control: 77.4 % of control and 85.4 % of control and 82.4 % of control and 69.3 % of control and 74.1 % of control
[1]; PRP, ADP 10 μmol/L, compound 400 μM, single replicates
  Aggregation (%): 39.7% and 31.6% and 37.9% and 34.1% and 44.8%
[1]; PRP, ADP 10 μmol/L, compound 400 μM, single replicates, 400 µM
  Aggregation % of control: 66.9 % of control and 69.3 % of control and 55.2 % of control and 66.2 % of control and 59.6 % of control and 78.3 % of control
[1]; PRP, ADP 10 μmol/L, compound 800 μM, single replicates
  Aggregation (%): 30.9% and 33.6% and 36.0% and 28.9% and 28.6% and 38.4%
[1]; PRP, ADP 10 μmol/L, compound 800 μM, single replicates, 800 µM
  Aggregation % of control: 58.7 % of control and 62.9 % of control and 50.5 % of control and 50.0 % of control and 67.1 % of control
[1]; Rattus norvegicus, PRP, ADP 10 μmol/L, compound 100 μM, single replicates, read-out: Aggregation % of control
  activity at 100 µM: 78.4%
[1]; Rattus norvegicus, PRP, ADP 10 μmol/L, compound 200 μM, single replicates, read-out: Aggregation % of control
  activity at 200 µM: 74.2%
[1]; Rattus norvegicus, PRP, ADP 10 μmol/L, compound 800 μM, single replicates, read-out: Aggregation % of control
  activity at 800 µM: 54%
PI3Kp110β; 100 μM
  PI3Kp110β / GAPDH: 0.2747 and 0.1851 and 0.4122
  PI3Kp110β / GAPDH (Fold to ADP only): 0.5384 Fold to ADP only and 0.3629 Fold to ADP only and 0.8080 Fold to ADP only
PI3Kp110β; 200 μM
  PI3Kp110β / GAPDH: 0.2677 and 0.1570 and 0.3210
  PI3Kp110β / GAPDH (Fold to ADP only): 0.5248 Fold to ADP only and 0.3077 Fold to ADP only and 0.6292 Fold to ADP only
PI3Kp110β; 400 μM
  PI3Kp110β / GAPDH: 0.1072 and 0.1459 and 0.2766
  PI3Kp110β / GAPDH (Fold to ADP only): 0.2102 Fold to ADP only and 0.2861 Fold to ADP only and 0.5422 Fold to ADP only
PI3Kp110β; 800 μM
  PI3Kp110β / GAPDH: 0.0408 and 0.0426 and 0.1130
  PI3Kp110β / GAPDH (Fold to ADP only): 0.0801 Fold to ADP only and 0.0835 Fold to ADP only and 0.2214 Fold to ADP only
[2]; ADP 10 μmol/L, 100 μM
  p-Akt Ser473 / t-Akt: 0.1822 and 0.1825 and 0.1171
  p-Akt Ser473 / t-Akt (Fold to ADP only): 0.4309 Fold to ADP only and 0.4315 Fold to ADP only and 0.2769 Fold to ADP only
[2]; ADP 10 μmol/L, 200 μM
  p-Akt Ser473 / t-Akt: 0.1611 and 0.1671 and 0.0697
  p-Akt Ser473 / t-Akt (Fold to ADP only): 0.3810 Fold to ADP only and 0.3953 Fold to ADP only and 0.1648 Fold to ADP only
[2]; ADP 10 μmol/L, 400 μM
  p-Akt Ser473 / t-Akt: 0.1761 and 0.0969 and 0.0748
  p-Akt Ser473 / t-Akt (Fold to ADP only): 0.4165 Fold to ADP only and 0.2292 Fold to ADP only and 0.1768 Fold to ADP only
[2]; ADP 10 μmol/L, 800 μM
  p-Akt Ser473 / t-Akt: 0.0725 and 0.0226 and 0.0288
  p-Akt Ser473 / t-Akt (Fold to ADP only): 0.1714 Fold to ADP only and 0.0534 Fold to ADP only and 0.0681 Fold to ADP only
[2]; [3]
  p-Akt Ser473 / t-Akt: 0.5270 and 0.4157 and 0.3312
  p-Akt Ser473 / t-Akt (Fold to ADP only): 0.6055 Fold to ADP only and 0.4777 Fold to ADP only and 0.3805 Fold to ADP only
